# Tested on: blood brain barrier
# Assay: Fluorimetric analysis of labeled dextrans in brain after i.v. drug administration
# Type: in vivo, mice
# Protocol: C57BL/6 mice from Jackson Laboratories were used as wild types. All mice used were aged 7-9 weeks and weighed between 20-25 g. All rats were aged 8 weeks and weighed 200-220 g. Mice and rats were bred and housed under specific pathogen-free conditions.
# The adenosine receptor agonists NECA, CCPA and CGS 21860 were purchased from Tocris. Each was dissolved in DMSO then diluted in PBS to the desired concentration; in most cases final DMSO concentrations were <0.5% (vol/vol). For vehicle controls, DMSO was diluted in PBS to the same concentration. Dehydrated dextrans labeled with either FITC or Texas Red were purchased from Invitrogen and re-suspended in PBS to 10 mg ml^−1. All experiments involving dextran injection used 0.5 mg dextran in PBS. In experiments where drug and dextran were injected concomitantly, 0.5 mg of dextran was mixed with the drug to the desired concentration in a final volume of 200 μl. All injections were retro-orbital i.v. with a 27-gauge needle. In the SCH 58261 experiment, groups were administered vehicle or SCH 58261 for 4 d. Vehicle/drug and dextrans were injected on day 5 and tissues were collected 3 h after vehicle/drug administration. In Lexiscan experiments, Lexiscan was administered i.v. with 3 injections, 5 min apart and tissues were collected at 15 min unless otherwise indicated.
# In dose-response experiments and experiments with the A1 AR and A2A AR knock-out mice, drugs and dextrans were injected concomitantly. After 3 h, the mice were anesthetized with ketamine/xylazine and subjected to a nose cone containing isoflurane. They were perfused with 25-50 ml ice-cold PBS through the left ventricle of the heart then decapitated. Their brains were removed, weighed and frozen for later analysis.
# Ice-cold 50 mM Tris-Cl (pH 7.6) was added to frozen brains (100 μl per 100 mg brain) and were to thawed on ice. They were homogenized manually with ˜45 strokes of a dounce homogenizer in plastic 1.5 ml microfuge tubes then spun at 16.1 g in a microfuge for 30 min at room temperature (rt). The supernatants were transferred to new tubes and an equal volume absolute methanol was added. The samples were spun again at 16.1 g for 30 min at rt. Supernatant (200 μl) was transferred to a Corning costar 96 well black polystyrene assay plate (clear bottom). Additionally, a series of standards containing 0.001-10 μg ml^−1 dextran in 50% Tris-Cl/50% absolute methanol (vol/vol) was added to each plate. Absolute concentrations of dextrans were derived from these standard curves. Fluorimetric analysis was performed on a BioTek Synergy 4. FITC-dextran was detected at 488/519 (excitation/emission) and Texas Red-dextran was detected at 592/618.
# [1] = WT mice, 3 h after i.v. administration
smiles,measurement,setting,value
"CCNC(=O)[C@H]1O[C@@H](n2cnc3c(N)ncnc32)[C@H](O)[C@@H]1O [NECA, 5′-N-ethylcarboxamidoadenosine]","levels of i.v.-administered 10,000 Da dextrans in brain compared to wild type mice","A1−/− mice, 3 h after i.v. administration",significantly lower levels
same,"levels of i.v.-administered 10,000 Da dextrans in brain compared to wild type mice","A2A−/− mice, 3 h after i.v. administration",significantly lower levels
same,time of maximum entry of labeled dextran into the CNS post-treatment,"WT mice, 10,000 Da FITC-dextran co-administered with drug at T0",4 to 6 h
same,"CNS entry of 10,000 Da dextrans compared to vehicle",[1],dose-dependent increase
same,"CNS entry of 70,000 Da dextrans compared to vehicle",[1],dose-dependent increase
same,time post-treatment by which dextran levels returned to baseline,"WT mice, Texas Red-dextran injected after drug, 19.5 h collection time",≤ 18 h
same,detectable levels of dextran in the brain at 8 h post-treatment,"WT mice, Texas Red-dextran injected at indicated time after drug, 9.5 h collection time",decreased from the maximum
same,dose giving maximum entry of dextrans into the CNS,"WT mice, i.v., 100 μl of 25 μM",0.80 µg

# From US20110262442A1, “COMPOSITIONS FOR TREATING CNS DISORDERS” (Adenios, Inc., priority 2009, published 2011)
